# Literature values in patent US5665379A, “Lipid particle forming matrix, preparation and use thereof” (priority 1990, dated 1997).
structure (smiles),measurement,value
CCCCCCCCCCCCCCCC(=O)OC(CC(=O)[O-])C[N+](C)(C)C (stereo not shown) [palmitoylcarnitine],Absorption enhancement in the gut (in words),acts as an absorption enhancer
